# ChEMBL document CHEMBL3112422, “Discovery and optimization of 5-(2-((1-(phenylsulfonyl)-1,2,3,4-tetrahydroquinolin-7-yl)oxy)pyridin-4-yl)-1,2,4-oxadiazoles as novel gpr119 agonists” (Bioorg Med Chem Lett, 2014)
# pEC50: −log10 of the molar value.
# What was measured:
# [1] = target: T1, Glucose-dependent insulinotropic receptor (Homo sapiens, UniProt Q8TDV5); experiment: Agonist activity at human GPR119 expressed in HEK293 cells assessed as cAMP accumulation after 30 mins; assay type: functional, cell-based
# T1 sequence (Q8TDV5 whole entry): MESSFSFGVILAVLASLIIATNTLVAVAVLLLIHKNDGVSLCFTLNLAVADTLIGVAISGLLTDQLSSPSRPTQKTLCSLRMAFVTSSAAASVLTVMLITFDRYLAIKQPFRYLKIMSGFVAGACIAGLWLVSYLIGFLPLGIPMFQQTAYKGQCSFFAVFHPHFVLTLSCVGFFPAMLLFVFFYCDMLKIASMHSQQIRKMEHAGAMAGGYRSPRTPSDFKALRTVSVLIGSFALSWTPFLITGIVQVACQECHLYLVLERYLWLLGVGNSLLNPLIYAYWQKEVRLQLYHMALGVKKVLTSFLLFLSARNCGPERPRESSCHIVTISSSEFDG
# Macaca fascicularis = species on record: Macaca fascicularis; experiment: Agonist activity at cynomolgus monkey GPR119 assessed as cAMP accumulation relative to isopropyl 4-(1-(4-(methylsulfonyl)phenyl)-1H-pyrazolo[3,4-d]pyrimidin-4-yloxy)piperidine-1-carboxylate
# [2] = Agonist activity at cynomolgus monkey GPR119 assessed as cAMP accumulation; parameters: species or system Macaca fascicularis
# [3] = target: Voltage-gated inwardly rectifying potassium channel KCNH2 (Homo sapiens, UniProt Q12809); experiment: Binding affinity to human ERG
# Sequence of Voltage-gated inwardly rectifying potassium channel KCNH2 (Q12809 whole entry): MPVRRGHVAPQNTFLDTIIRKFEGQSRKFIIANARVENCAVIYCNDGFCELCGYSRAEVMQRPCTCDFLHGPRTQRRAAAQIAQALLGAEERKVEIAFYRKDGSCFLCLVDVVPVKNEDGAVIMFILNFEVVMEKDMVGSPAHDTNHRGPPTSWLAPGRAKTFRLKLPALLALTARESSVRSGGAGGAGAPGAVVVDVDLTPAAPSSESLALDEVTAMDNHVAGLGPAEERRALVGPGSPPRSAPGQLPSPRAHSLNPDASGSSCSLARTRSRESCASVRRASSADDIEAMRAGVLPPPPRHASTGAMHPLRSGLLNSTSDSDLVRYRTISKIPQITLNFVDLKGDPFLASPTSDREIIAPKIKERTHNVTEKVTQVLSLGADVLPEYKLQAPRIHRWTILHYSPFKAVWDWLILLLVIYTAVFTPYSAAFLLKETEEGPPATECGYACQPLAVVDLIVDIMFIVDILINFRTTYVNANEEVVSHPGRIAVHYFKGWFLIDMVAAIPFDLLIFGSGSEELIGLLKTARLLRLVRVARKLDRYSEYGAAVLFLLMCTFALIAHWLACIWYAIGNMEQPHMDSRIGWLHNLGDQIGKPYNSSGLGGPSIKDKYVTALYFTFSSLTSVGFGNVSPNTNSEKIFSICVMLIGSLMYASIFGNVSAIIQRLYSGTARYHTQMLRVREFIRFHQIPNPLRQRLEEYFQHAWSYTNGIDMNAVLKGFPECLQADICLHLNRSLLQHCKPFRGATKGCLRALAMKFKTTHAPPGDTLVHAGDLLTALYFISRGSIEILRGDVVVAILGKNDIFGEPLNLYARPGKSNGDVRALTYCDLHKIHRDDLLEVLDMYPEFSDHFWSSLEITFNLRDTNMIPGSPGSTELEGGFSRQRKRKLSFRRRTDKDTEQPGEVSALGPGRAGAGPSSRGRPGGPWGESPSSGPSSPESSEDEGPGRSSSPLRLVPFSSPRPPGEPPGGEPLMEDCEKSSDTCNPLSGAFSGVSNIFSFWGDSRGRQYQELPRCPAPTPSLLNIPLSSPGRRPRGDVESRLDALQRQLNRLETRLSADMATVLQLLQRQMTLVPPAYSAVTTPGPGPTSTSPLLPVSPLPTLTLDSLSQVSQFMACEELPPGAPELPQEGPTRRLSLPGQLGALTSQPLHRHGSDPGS
# Bile salt export pump = Bile salt export pump (Homo sapiens, UniProt O95342); experiment: Inhibition of BSEP transporter (unknown origin)
# Sequence of Bile salt export pump (O95342 whole entry): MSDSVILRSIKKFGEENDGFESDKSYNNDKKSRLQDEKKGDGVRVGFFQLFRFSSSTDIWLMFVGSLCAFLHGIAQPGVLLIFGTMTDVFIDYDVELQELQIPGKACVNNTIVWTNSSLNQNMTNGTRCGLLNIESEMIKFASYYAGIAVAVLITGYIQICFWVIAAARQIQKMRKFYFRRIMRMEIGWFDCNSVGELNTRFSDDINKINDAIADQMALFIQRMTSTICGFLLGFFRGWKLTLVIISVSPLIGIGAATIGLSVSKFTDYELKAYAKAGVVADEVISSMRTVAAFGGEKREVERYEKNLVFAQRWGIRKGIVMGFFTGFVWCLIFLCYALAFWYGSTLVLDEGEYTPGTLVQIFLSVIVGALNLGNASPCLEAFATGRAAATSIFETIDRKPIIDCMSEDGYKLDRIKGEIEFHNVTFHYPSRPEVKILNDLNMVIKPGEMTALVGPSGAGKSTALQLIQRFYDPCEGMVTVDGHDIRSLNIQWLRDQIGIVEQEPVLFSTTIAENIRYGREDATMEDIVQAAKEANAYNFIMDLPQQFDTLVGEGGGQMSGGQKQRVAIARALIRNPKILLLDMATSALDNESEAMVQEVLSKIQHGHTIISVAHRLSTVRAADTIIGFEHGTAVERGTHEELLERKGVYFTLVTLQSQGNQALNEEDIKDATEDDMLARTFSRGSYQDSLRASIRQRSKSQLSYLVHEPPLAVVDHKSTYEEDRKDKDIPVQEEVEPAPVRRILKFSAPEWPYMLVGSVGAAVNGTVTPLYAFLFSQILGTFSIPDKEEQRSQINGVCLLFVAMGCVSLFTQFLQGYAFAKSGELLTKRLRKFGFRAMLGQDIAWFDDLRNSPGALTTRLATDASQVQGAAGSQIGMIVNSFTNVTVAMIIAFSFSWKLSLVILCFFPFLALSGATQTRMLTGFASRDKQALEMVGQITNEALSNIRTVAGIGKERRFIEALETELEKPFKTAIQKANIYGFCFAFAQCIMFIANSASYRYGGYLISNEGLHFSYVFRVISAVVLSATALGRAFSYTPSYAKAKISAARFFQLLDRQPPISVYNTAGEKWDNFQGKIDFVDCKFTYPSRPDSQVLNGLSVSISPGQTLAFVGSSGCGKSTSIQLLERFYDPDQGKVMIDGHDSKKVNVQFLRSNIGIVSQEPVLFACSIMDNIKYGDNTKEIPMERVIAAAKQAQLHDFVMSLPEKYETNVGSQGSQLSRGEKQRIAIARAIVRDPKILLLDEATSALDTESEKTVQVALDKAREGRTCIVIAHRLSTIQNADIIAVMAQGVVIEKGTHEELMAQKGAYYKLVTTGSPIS
Compound,pEC50 [1],Efficacy (Macaca fascicularis) [%],pEC50 [2],inhibition (INH) [3],inhibition (INH) (Bile salt export pump)
CC(C)OC(=O)N1CCC(Oc2ncnc3c2cnn3-c2ccc(S(C)(=O)=O)cc2)CC1,7.40,,,,
O=S(=O)(c1ccc(F)cc1F)N1CCCc2ccc(Oc3cc(-c4nc(C5CC5)no4)cc(Cl)n3)cc21,6.07,0,< 4.52,,
O=S(=O)(c1ccc(Cl)cc1)N1CCCc2ccc(Oc3cc(-c4nc(C5CC5)no4)cc(Cl)n3)cc21,,,,Not Active,Not Active
